The source of these data is US9226503B2, “Composition and method for attraction of emerald ash borer Agrilus planipennis fairmaire (coleoptera: buprestidae)” (Her Majesty the Queen in Right of Canada, as represented by …, priority 2011, dated 2016).

Assay [1] has as its system A. planipennis. The experiment in a line: Field trapping experiment 1 (2008), purple prism traps, Ontario. The assay is classed as in vivo, Agrilus planipennis. Here is the method:
Field trapping. Three trapping experiments were carried out in green ash plantations (F. pennsylvanica Marsch) with low-to-moderate A. planipennis populations about 40 km southeast of Sarnia, Ontario (42° 58′ 0 N, 82° 24′ 0 W) in 2008, 2009 and 2010. Trees at these sites were generally healthy in appearance with low or no signs of decline, and only a small number of trees had obvious signs/symptoms of infestation by A. planipennis. In Ontario sites, trees were 20-25 years old, 4-6 m tall, 10-15 cm in diameter, and spaced about 2 m apart within a row and 2.5 m between rows. In 2010, the trapping experiment was replicated at four sites in Michigan, USA, in addition to the sites in Ontario. […] Traps were checked every 2 weeks and A. planipennis were collected, counted and sexed.
Experiment 1, conducted in Ontario in 2008, was designed to test for attractiveness of (3Z)-lactone (Bartelt et al. 2007), alone and in combination with two types of host volatiles: bark sesquiterpenes (Crook et al. 2008) and a binary blend of green leaf volatiles ((3Z)-hexenol and (2E)-hexenol) (Poland et al. 2005, de Groot et al. 2008). […] We selected Phoebe oil because it contained two additional sesquiterpenes that had been detected in ash trees and appeared to be more attractive than Manuka oil (Crook et al. 2008) and the (3Z)-hexenol and (2E)-hexenol combination based on results from de Groot et al. (2008). […]

The test system of assay [2] is A. planipennis. Description: Field trapping 2011 experiment 2: (3Z)-lactone, (3Z)-hexenol and trap height factorial, dark green traps. Type of assay: in vivo, Agrilus planipennis. The following applies: 2×2×2 factorial, lactone 3 mg/lure. Here is the method:
Two trapping experiments were conducted in green and white ash plantations (F. pennsylvanica Marsch and F. americana L.) located 40-60 km southeast of Sarnia, Ontario in 2011. Trees were 20-30 yr old, 5-8 m tall, 12-18 cm in diameter, and spaced 2-3 m apart within and between rows. Five sites were used in total: four were green ash and the fifth was a white ash plantation. Trees at four of the sites generally appeared healthy with few or no signs of decline and only a few with obvious signs and symptoms of infestation by A. planipennis. At the fifth site, obvious crown decline and signs of infestation were apparent on about one-quarter of trees.
Green prism sticky traps (0.30 cm×35.00 cm×58.75 cm) (Synergy Semiochemicals Corp., Burnaby, BC) were used in all field trials, deployed using modified umbrella rig spreaders (Zing Products, Westport, Mass.). Traps were spaced 20-25 m apart and lure treatments replicated in randomized complete block designs. Traps were deployed either using ropes tied between two trees or using a single line over a canopy branch, as described further below for each specific experimental objective. Traps were typically checked every 2 wk and A. planipennis were collected, counted, and sexed.
Experiment 2 was a 2×2×2 factorial experiment designed to test the effects of (3Z)-lactone, (3Z)-hexenol, trap height, and their interactions on numbers of A. planipennis captured on sticky, dark green (540-nm wavelength) (Francese et al 2010a) prism traps. Traps were baited with either (3Z)-lactone, (3Z)-hexenol, (3Z)-lactone+(3Z)-hexenol, or neither compound (unbaited control) and all treatments were deployed both below the canopy or in the mid-canopy. Traps placed below the canopy were suspended from ropes tied between two trees so the trap was 1-1.5 m from either tree and the top of the trap was 1.5-2 m above the ground. Traps in the canopy were deployed from a single line looped over a mid-canopy branch such that traps were 1-1.5 m from the main stem and their tops were 6 m above ground. (3Z)-Lactone was loaded onto rubber septa lures at a dosage of 3 mg/lure. Release rates of the (3Z)-lactone and (3Z)-hexenol were 60-70 μg/day and 50-100 mg/day, respectively at 25° C. Traps were in the field from 8 June-5 August, with one block at one site (Nauvoo Ranch), 5 blocks at a second site (LaSalle, the one white ash plantation), and 4 blocks at a third site (Brook Line). The 3 mg (3Z)-lactone lures were estimated to maintain adequate release rates for a minimum of three weeks and thus were replaced after three weeks; (3Z)-hexenol lures were not replaced during the experiment.
Numbers of A. planipennis captured in the trapping experiments were subjected to ANOVA separately for males and females. […]

As for `O=C1C/C=C\CCCCCCCCO1` [(3Z)-lactone, (3Z)-dodecen-12-olide], in the assay on A. planipennis [1], the “trap captures compared to unbaited controls” value is “not significantly attractive”. Further, in the assay on A. planipennis [2], the “mean capture of males per trap, effect of presence of the lure component” value was “significantly and positively affected”; the “mean catch of females, effect of the lure component” value is “not”.
